Legend:
Rattus norvegicus [1] = test: Toxicity in Rattus norvegicus Wistar (rat) assessed as Rmax at 40 mg/kg, ip measured after 60 min by ECG analysis (reference value: 0.07 +/- 0.004 mv); type: organism-based; design: dose 40 mg/kg, route intraperitoneal; details: in vivo, 1 h
Heart [2] = test: Inhibition of force of contraction in Hoplobatrachus tigerinus (frog) heart at log dose 3; type: functional
Rattus norvegicus [3] = test: Toxicity in Rattus norvegicus Wistar (rat) assessed as heart rate at 40 mg/kg, ip measured after 60 min by ECG analysis (reference value: 307.62 +/- 0.053 bpm); type: organism-based; design: dose 40 mg/kg, route intraperitoneal; details: in vivo, 1 h
Rattus norvegicus [4] = test: Toxicity in Rattus norvegicus Wistar (rat) assessed as heart rate at 40 mg/kg, ip measured after 45 min by ECG analysis (reference value: 307.62 +/- 0.023 bpm); type: organism-based; design: dose 40 mg/kg, route intraperitoneal; details: in vivo, 0.75 h
Heart [5] = test: Inhibition of force of contraction in Hoplobatrachus tigerinus (frog) heart at log dose 2; type: functional
Rattus norvegicus [6] = test: Toxicity in Rattus norvegicus Wistar (rat) assessed as Rmax at 40 mg/kg, ip measured after 45 min by ECG analysis (reference value: 0.08 +/- 0.008 mv); type: organism-based; design: dose 40 mg/kg, route intraperitoneal; details: in vivo, 0.75 h
Rattus norvegicus [7] = test: Toxicity in Rattus norvegicus Wistar (rat) assessed as Rmax at 40 mg/kg, ip measured after 30 min by ECG analysis (reference value: 0.08 +/- 0.008 mv); type: organism-based; design: dose 40 mg/kg, route intraperitoneal; details: in vivo, 0.5 h
Rattus norvegicus [8] = test: Toxicity in Rattus norvegicus Wistar (rat) assessed as heart rate at 40 mg/kg, ip measured after 30 min by ECG analysis (reference value: 307.62 +/- 0.439 bpm); type: organism-based; design: dose 40 mg/kg, route intraperitoneal; details: in vivo, 0.5 h
Heart [9] = test: Inhibition of force of contraction in Hoplobatrachus tigerinus (frog) heart at log dose 2.3; type: functional
Heart [10] = test: Inhibition of force of contraction in Hoplobatrachus tigerinus (frog) heart at log dose 2.9; type: functional
Heart [11] = test: Inhibition of force of contraction in Hoplobatrachus tigerinus (frog) heart at log dose 2.6; type: functional
Rattus norvegicus [12] = test: Toxicity in Rattus norvegicus Wistar (rat) assessed as Rmax at 10 mg/kg, ip measured after 45 min by ECG analysis (reference value: 0.08 +/- 0.008 mv); type: organism-based; design: dose 10 mg/kg, route intraperitoneal; details: in vivo, 0.75 h
Rattus norvegicus [13] = test: Toxicity in Rattus norvegicus Wistar (rat) assessed as heart rate at 10 mg/kg, ip measured after 45 min by ECG analysis (reference value: 307.62 +/- 0.023 bpm); type: organism-based; design: dose 10 mg/kg, route intraperitoneal; details: in vivo, 0.75 h
Rattus norvegicus [14] = test: Toxicity in Rattus norvegicus Wistar (rat) assessed as Rmax at 10 mg/kg, ip measured after 60 min by ECG analysis (reference value: 0.07 +/- 0.004 mv); type: organism-based; design: dose 10 mg/kg, route intraperitoneal; details: in vivo, 1 h
Rattus norvegicus [15] = test: Toxicity in Rattus norvegicus Wistar (rat) assessed as heart rate at 10 mg/kg, ip measured after 60 min by ECG analysis (reference value: 307.62 +/- 0.053 bpm); type: organism-based; design: dose 10 mg/kg, route intraperitoneal; details: in vivo, 1 h
Rattus norvegicus [16] = test: Toxicity in Rattus norvegicus Wistar (rat) assessed as Rmax at 10 mg/kg, ip measured after 30 min by ECG analysis (reference value: 0.08 +/- 0.008 mv); type: organism-based; design: dose 10 mg/kg, route intraperitoneal; details: in vivo, 0.5 h
Rattus norvegicus [17] = test: Toxicity in Rattus norvegicus Wistar (rat) assessed as heart rate at 10 mg/kg, ip measured after 30 min by ECG analysis (reference value: 307.62 +/- 0.035 bpm); type: organism-based; design: dose 10 mg/kg, route intraperitoneal; details: in vivo, 0.5 h
Rattus norvegicus [18] = test: Toxicity in Rattus norvegicus Wistar (rat) assessed as heart rate at 30 mg/kg, ip measured after 60 min by ECG analysis (reference value: 307.62 +/- 0.053 bpm); type: organism-based; design: dose 30 mg/kg, route intraperitoneal; details: in vivo, 1 h
Rattus norvegicus [19] = test: Toxicity in Rattus norvegicus Wistar (rat) assessed as heart rate at 30 mg/kg, ip measured after 45 min by ECG analysis (reference value: 307.62 +/- 0.023 bpm); type: organism-based; design: dose 30 mg/kg, route intraperitoneal; details: in vivo, 0.75 h
Rattus norvegicus [20] = test: Toxicity in Rattus norvegicus Wistar (rat) assessed as heart rate at 30 mg/kg, ip measured after 30 min by ECG analysis (reference value: 307.62 +/- 0.439 bpm); type: organism-based; design: dose 30 mg/kg, route intraperitoneal; details: in vivo, 0.5 h
Rattus norvegicus [21] = test: Toxicity in Rattus norvegicus Wistar (rat) assessed as Rmax at 30 mg/kg, ip measured after 45 min by ECG analysis (reference value: 0.08 +/- 0.008 mv); type: organism-based; design: dose 30 mg/kg, route intraperitoneal; details: in vivo, 0.75 h
Rattus norvegicus [22] = test: Toxicity in Rattus norvegicus Wistar (rat) assessed as Rmax at 30 mg/kg, ip measured after 60 min by ECG analysis (reference value: 0.07 +/- 0.004 mv); type: organism-based; design: dose 30 mg/kg, route intraperitoneal; details: in vivo, 1 h
Rattus norvegicus [23] = test: Toxicity in Rattus norvegicus Wistar (rat) assessed as Rmax at 30 mg/kg, ip measured after 30 min by ECG analysis (reference value: 0.08 +/- 0.008 mv); type: organism-based; design: dose 30 mg/kg, route intraperitoneal; details: in vivo, 0.5 h
Rattus norvegicus [24] = test: Toxicity in Rattus norvegicus Wistar (rat) assessed as Rmax at 50 mg/kg, ip measured after 60 min by ECG analysis (reference value: 0.07 +/- 0.004 mv); type: organism-based; design: dose 50 mg/kg, route intraperitoneal; details: in vivo, 1 h
Rattus norvegicus [25] = test: Toxicity in Rattus norvegicus Wistar (rat) assessed as heart rate at 50 mg/kg, ip measured after 60 min by ECG analysis (reference value: 307.62 +/- 0.053 bpm); type: organism-based; design: dose 50 mg/kg, route intraperitoneal; details: in vivo, 1 h
Rattus norvegicus [26] = test: Toxicity in Rattus norvegicus Wistar (rat) assessed as heart rate at 50 mg/kg, ip measured after 45 min by ECG analysis (reference value: 307.62 +/- 0.023 bpm); type: organism-based; design: dose 50 mg/kg, route intraperitoneal; details: in vivo, 0.75 h
Rattus norvegicus [27] = test: Toxicity in Rattus norvegicus Wistar (rat) assessed as Rmax at 50 mg/kg, ip measured after 45 min by ECG analysis (reference value: 0.08 +/- 0.008 mv); type: organism-based; design: dose 50 mg/kg, route intraperitoneal; details: in vivo, 0.75 h
Rattus norvegicus [28] = test: Toxicity in Rattus norvegicus Wistar (rat) assessed as Rmax at 50 mg/kg, ip measured after 30 min by ECG analysis (reference value: 0.08 +/- 0.008 mv); type: organism-based; design: dose 50 mg/kg, route intraperitoneal; details: in vivo, 0.5 h
Rattus norvegicus [29] = test: Toxicity in Rattus norvegicus Wistar (rat) assessed as heart rate at 50 mg/kg, ip measured after 30 min by ECG analysis (reference value: 307.62 +/- 0.439 bpm); type: organism-based; design: dose 50 mg/kg, route intraperitoneal; details: in vivo, 0.5 h

CCOC(=O)C1=C(C)N(CC(O)COc2ccc(/C=N/C(=S)Nc3ccccc3OC)cc2)C(=S)NC1c1cccc([N+](=O)[O-])c1 (stereo not given)
Activity (Rattus norvegicus [1]): 0.19 mV
inhibition (INH) (Heart [2]): 36%
Activity (Rattus norvegicus [3]): 215.7 bpm
Activity (Rattus norvegicus [4]): 214.17 bpm
inhibition (INH) (Heart [5]): 32%
Activity (Rattus norvegicus [6]): 0.03 mV
Activity (Rattus norvegicus [7]): 0.08 mV
Activity (Rattus norvegicus [8]): 226.62 bpm
inhibition (INH) (Heart [9]): 10%
inhibition (INH) (Heart [10]): 22%
inhibition (INH) (Heart [11]): 23%

CCOC(=O)C1=C(C)N(CC(O)COc2ccc(/C=N/C(=S)Nc3ccc(OC)cc3)cc2)C(=S)NC1c1ccccc1[N+](=O)[O-] (stereo not given)
Activity (Rattus norvegicus [1]): 0.13 mV
Activity (Rattus norvegicus [3]): 266.41 bpm
Activity (Rattus norvegicus [4]): 266.41 bpm
inhibition (INH) (Heart [5]): 30%
Activity (Rattus norvegicus [6]): 0.02 mV
Activity (Rattus norvegicus [7]): 0.09 mV
Activity (Rattus norvegicus [8]): 272.19 bpm
inhibition (INH) (Heart [9]): 50%
inhibition (INH) (Heart [10]): 66%
inhibition (INH) (Heart [11]): 50%

CC(C)NCC(O)COc1cccc2ccccc12 (stereo not given) [PROPRANOLOL]
Activity (Rattus norvegicus [12]): 0.02 mV
Activity (Rattus norvegicus [13]): 333 bpm
Activity (Rattus norvegicus [14]): 0.13 mV
Activity (Rattus norvegicus [15]): 333 bpm
Activity (Rattus norvegicus [16]): 0.04 mV
Activity (Rattus norvegicus [17]): 400 bpm

CCOC(=O)C1=C(C)N(CC(O)COc2ccc(/C=N/C(=S)Nc3ccc(OC)cc3)cc2)C(=S)NC1c1cccc([N+](=O)[O-])c1 (stereo not given)
Activity (Rattus norvegicus [1]): 0.14 mV
Activity (Rattus norvegicus [3]): 300.22 bpm
Activity (Rattus norvegicus [4]): 300.22 bpm
inhibition (INH) (Heart [5]): 50%
Activity (Rattus norvegicus [6]): 0.07 mV
Activity (Rattus norvegicus [7]): 0.04 mV
Activity (Rattus norvegicus [8]): 315.87 bpm
inhibition (INH) (Heart [9]): 43%
inhibition (INH) (Heart [10]): 50%
inhibition (INH) (Heart [11]): 43%

COC(=O)C1=C(C)NC(C)=C(C(=O)OC)C1c1ccccc1[N+](=O)[O-] [NIFEDIPINE]
Activity (Rattus norvegicus [18]): 521.73 bpm
Activity (Rattus norvegicus [19]): 425.61 bpm
Activity (Rattus norvegicus [20]): 363.63 bpm
Activity (Rattus norvegicus [21]): 0.1 mV
Activity (Rattus norvegicus [22]): 0.15 mV
Activity (Rattus norvegicus [23]): 0.04 mV

CCOC(=O)C1=C(C)N(CC(O)COc2ccc(/C=N/C(=S)Nc3ccc(Cl)cc3)cc2)C(=S)NC1c1cccc([N+](=O)[O-])c1 (stereo not given)
Activity (Rattus norvegicus [1]): 0.07 mV
Activity (Rattus norvegicus [3]): 260.42 bpm
Activity (Rattus norvegicus [4]): 299.78 bpm
inhibition (INH) (Heart [5]): 13%
Activity (Rattus norvegicus [6]): 0.01 mV
Activity (Rattus norvegicus [7]): 0.03 mV
Activity (Rattus norvegicus [8]): 323.85 bpm
inhibition (INH) (Heart [9]): 20%
inhibition (INH) (Heart [10]): 25%
inhibition (INH) (Heart [11]): 4%

CCOC(=O)C1=C(C)N(CC(O)COc2ccc(/C=N/C(=S)Nc3ccccc3OC)cc2)C(=S)NC1c1ccccc1[N+](=O)[O-] (stereo not given)
Activity (Rattus norvegicus [1]): 0.13 mV
inhibition (INH) (Heart [2]): 31%
Activity (Rattus norvegicus [3]): 266.08 bpm
Activity (Rattus norvegicus [4]): 266.08 bpm
inhibition (INH) (Heart [5]): 25%
Activity (Rattus norvegicus [6]): 0.05 mV
Activity (Rattus norvegicus [7]): 0.1 mV
Activity (Rattus norvegicus [8]): 266.08 bpm
inhibition (INH) (Heart [9]): 38%
inhibition (INH) (Heart [10]): 20%
inhibition (INH) (Heart [11]): 20%

CCOC(=O)C1=C(C)N(CC(O)COc2ccc(/C=N/C(=S)Nc3ccc(C(=O)O)cc3)cc2)C(=S)NC1c1cccc([N+](=O)[O-])c1 (stereo not given)
inhibition (INH) (Heart [5]): 23%
Activity (Rattus norvegicus [24]): 0.12 mV
Activity (Rattus norvegicus [25]): 399.26 bpm
Activity (Rattus norvegicus [26]): 399.26 bpm
Activity (Rattus norvegicus [27]): 0.05 mV
inhibition (INH) (Heart [9]): 5%
Activity (Rattus norvegicus [28]): 0.03 mV
inhibition (INH) (Heart [10]): 30%
inhibition (INH) (Heart [11]): 25%
Activity (Rattus norvegicus [29]): 399.26 bpm

CCOC(=O)C1=C(C)N(CC(O)COc2ccc(/C=N/C(=S)Nc3ccc(Cl)cc3)cc2)C(=S)NC1c1ccccc1[N+](=O)[O-] (stereo not given)
Activity (Rattus norvegicus [1]): 0.09 mV
inhibition (INH) (Heart [2]): 50%
Activity (Rattus norvegicus [3]): 315.25 bpm
Activity (Rattus norvegicus [4]): 324.05 bpm
inhibition (INH) (Heart [5]): 23%
Activity (Rattus norvegicus [6]): 0.02 mV
Activity (Rattus norvegicus [7]): 0.08 mV
Activity (Rattus norvegicus [8]): 324.05 bpm
inhibition (INH) (Heart [9]): 16%
inhibition (INH) (Heart [10]): 18%
inhibition (INH) (Heart [11]): 18%

— ChEMBL document CHEMBL3046778, “Design, synthesis and pharmacological screening of hybrid molecules as antihypertensives” (Med Chem Res, 2011)
